The record followed here is patent US20120301468A1, “ANTI-MN ANTIBODIES AND METHODS OF USING SAME” (BAYER HEALTHCARE LLC, priority 2005, published 2012).

In data set [1] the test system is HCT-15 multi-drug resistant (P-gp) CRC xenograft. The data set can be described thus: HCT-15 multi-drug resistant xenograft model. Type of data set: in vivo, NCr nu/nu mice. As to conditions: HCT-15 MDR model. The method, then: To examine the effect of 3ee9/MMAE in a multi-drug resistance model, female NCr nu/nu mice were implanted subcutaneously (s.c.) with 5×10^6 HCT-15 cells. HCT-15 is a multi-drug resistant (MDR) line that over-expresses P-glycoprotein (P-gp). […] 3ee9/MMAE, Taxol, and Gemcitabine were administered when mice had established tumors with mean weight of ˜150 mg. Gemcitabine, a pyrimidine analog that is not a P-gp substrate was used as a positive control.

The test system of data set [2] is HT-29 human CRC xenograft. Briefly: HT-29 subcutaneous xenograft model. As to conditions: HT-29; for % Inhibition (1-T/D)*100 (Day 18) / Percent Regressions: Q4D × 3. Format: in vivo, athymic NCr (nu/nu) mice. The method, then: When tumors reached an average size of ˜120 mg (5 days), treatment was initiated. […] In addition, MMAE was assessed as a free drug at a dose of 0.1, 0.2 and 1 mg/kg. The 0.1 and 0.2 mg/Kg doses of MMAE represent equivalent amounts of this drug to those present on 5 and 10 mg/Kg 3ee9/MMAE respectively.
Anti-tumor effect of 3ee9/MMAE was also assessed in varying schedules, i.e., once a week dosing for total of two doses (Q7Dx2, FIG. 20) and a single dose at the time of staging (Q1Dx1, FIG. 21). In both schedules, 3ee9/MMAE was dosed at 0.625, 1.25, 2.5, 5 and 10 mg/kg.

Data set [3] deals with Colo-205 CRC xenograft. Briefly: Colo-205 subcutaneous xenograft model. As to conditions: Colo-205. From the text:
The in vivo anti-tumor effect of 3ee9/MMAE was examined in 6 different human xenograft tumor models. These models were established through subcutaneous implantation of human tumor cells into female athymic NCr (nu/nu) mice (Taconic, N.Y.). The human tumor xenograft models evaluated included the MaTu human mammary carcinoma model, the HT-29 and Colo-205 human colo-rectal carcinoma (CRC) models, PC3MM2 prostate carcinoma model, the HCT-15 multi-drug resistant (P-gp) CRC model, and the MiaPaCa2 human pancreatic model. PBS was used as a vehicle, and dosing solutions were prepared fresh daily. The dosing volume was 0.1 mL/10 g (10 mL/kg).
The length and width of each tumor were measured using an electronic caliper 2-3 times per week, and tumor weights (mg) were calculated based on the formula of [length (mm)×width (mm)^2]/2. All data, including daily observations, obtained throughout the course of the study were documented in Anti-tumor Data Acquisition System (ADAS). […] Tumor growth inhibition (TGI) was calculated as (1-T/C)×100, where T=final tumor weights from a treated group after the last dose, and C=final tumor weights from the control group after the last dose. In addition, anti-tumor efficacy was measured as the incidence of responses (or responders or regressions) defined as tumors with ≦50% of their initial size. A minimum duration of 7 days is required for a response to be considered durable.
The anti-tumor activity of 3ee9/MMAE was next evaluated against human prostate (PC-3 mm2) and CRC (Colo-205) tumor xenografts. Female NCr nu/nu mice were implanted subcutaneously (s.c.) either with 5×10^6 PC3 mm2 or Colo-205 cells. Treatment was initiated when tumors were of an average size of approximately 125-150 mg. The general health of mice was monitored and recorded daily. Tumor dimensions and body weights were recorded twice a week starting with the first day of treatment.
In the PC3 mm2 and Colo-205 studies, 3ee9/MMAE was administered intravenously (i.v.) once every 4th day for a total of 3 injections (Q4Dx3) at doses of 1, 3, 10 and 30 mg/kg and 1.25, 2.5, 5 and 10 mg/kg, respectively.
The feasibility of using 3ee9/MMAE in conjunction with other cancer chemotherapeutic agents was investigated. Xeloda® is used as first line treatment of patients with metastatic colorectal carcinoma. The activity and tolerability of combined therapy using 3ee9/MMAE and Xeloda® was evaluated. 3ee9/MMAE was administered i.v. on a Q4Dx3 schedule and at dose levels of 1.25, 2.5 and 10 mg/kg. Xeloda® was administered orally once daily for 9 days at dose levels of 250 and 500 mg/kg.

In data set [4] the target is T1, MN (Homo sapiens, UniProt Q16790). The data set can be described thus: Immunoprecipitation of biotinylated cell surface proteins. On the set-up: incubated with cell lysates of MN+ (Pc3 mm2) and MN− (DLD-1) cell lines that had been selectively labeled with biotin; endogenous in cells; host or cells: PC-3 mm2 (MN+); DLD-1 as the MN- control. Format: binding. As to conditions: biotin-labeled lysates of MN+ (Pc3 mm2) and MN− (DLD-1) cell lines. Here is the method:
To further explore specificity, various candidate antibodies including the antibody portion of 3ee9/MMAE (3ee9) and the reference antibody G250 were incubated with cell lysates of MN+ (Pc3 mm2) and MN− (DLD-1) cell lines that had been selectively labeled with biotin. Complexes between the antibodies and cellular proteins were immuno-precipitated and the co-precipitated antigens visualized using immunoblots developed with enzyme-linked streptavidin.

Data set [5] has as its target T1, MN. Briefly: Surface plasmon resonance (BIAcore) binding to MN protein. Set-up: The MN protein represents the entire extra-cellular domain of the protein with a C-terminal histag for purification; His tag (C); made in house; host or cells: HKB-11 (mammalian cell line). As to conditions: read-out: kD for purified MN protein. Here is the method: The binding interactions between MN protein and the antibodies of this invention were analyzed using surface plasmon resonance technology on a BIAcore 3000 instrument (BIAcore, Uppsala, Sweden). For the binding of full-length IgGs (1e4, 1aa1, and 3ee9), goat anti-human IgG Fc was covalently coupled to the CM5 biosensor chip at high density using a standard amine coupling kit (BIAcore, Uppsala, Sweden). A capture assay was then used to bind these IgG to the anti-human IgG Fc-immobilized surface, aiming for a 300 response unit BIAcore signal. […] After ligand binding, the flow rate was then increased to 25 μl/min and various concentrations of MN analyte (e.g., range of 50 nM to 1 nM) were flowed over the surface for 10 minutes such that the association phase could be monitored. […] The binding of Fabs to MN was similarly determined except that an anti-human-Fab IgG was immobilized onto the chip and used to capture the Fabs prior to the assessment of MN binding.
Binding interactions between HKB11-expressed human MN protein and human full-length anti-MN MAbs were analyzed using surface plasmon resonance technology on a BIAcore 3000 instrument (BIAcore, Uppsala, Sweden). […] After ligand binding, flow rate was increased to 25 ul/min and MN analyte (50 nM to 1 nM) was flowed over the surface for 10 min such that the association phase could be monitored. […]

Non-standard residues stand in square brackets, D forms with d. Residues, ends and D or L forms follow the SMILES beside them. *: point of attachment. Dolaproine = CO[C@@H]([C@@H]1CCCN1)[C@@H](C)C(=O)O; Dil = CC[C@H](C)[C@H](NC)[C@@H](CC(=O)O)OC; X1 = C[C@@H](N*)[C@@H](O)c1ccccc1; NMeV = CN[C@H](C(=O)O)C(C)C

In the case of `Nc1ccn([C@@H]2O[C@H](CO)[C@@H](O)C2(F)F)c(=O)n1` [Gemcitabine], the anti-tumor activity entry in data set [1] (120 mg/kg, i.p., QDx10) is on record as “highly active”.
Take `CC[C@H](C)[C@@H]([C@@H](CC(=O)N1CCC[C@H]1[C@H](OC)[C@@H](C)C(=O)N[C@H](C)[C@@H](O)c1ccccc1)OC)N(C)C(=O)[C@@H](NC(=O)[C@@H](NC)C(C)C)C(C)C` [MMAE, Monomethylauristatin E, reference compound] (H-[NMeV]V[Dil][Dolaproine]-X1): the entries for the “% Inhibition (1-T/D)*100 (Day 18)” value in data set [2] (0.1 mg/kg), in data set [2] (0.2 mg/kg) and in data set [2] (1 mg/kg) were 27%, 60% and “Toxic”, respectively. In addition, the “Percent Regressions” value in data set [2] (0.1 mg/kg) and in data set [2] (0.2 mg/kg) was 0% in each case. Moreover, the tumor responses result in data set [2] (free drug) was “did not induce any tumor responses”. In data set [2] (free drug 0.1 mg/kg), the “effect in inhibiting growth” value is reported as “no significant effect”. This molecule had an inhibition of tumour growth (TGI) in data set [2] (free drug 0.2 mg/kg) of 60%. The molecule further showed a lethality in data set [2] (free drug 1 mg/kg) of 50%. The tolerability entry in data set [2] (free drug 1 mg/kg) is given as “considered toxic”; in data set [2] (free drug 0.1 and 0.2 mg/kg), “well tolerated with non-significant, minimal weight loss”.
For the molecule `CC(=O)O[C@H]1C(=O)[C@@]2(C)[C@H]([C@H](OC(=O)c3ccccc3)[C@]3(O)C[C@H](OC(=O)[C@H](O)[C@@H](NC(=O)c4ccccc4)c4ccccc4)C(C)=C1C3(C)C)[C@]1(OC(C)=O)CO[C@@H]1C[C@@H]2O` [Taxol®], the anti-tumor effect result in data set [1] is reported as “failed to produce any significant anti-tumor effect”.
`CCCCCOC(=O)Nc1nc(=O)n([C@@H]2O[C@H](C)[C@@H](O)[C@H]2O)cc1F` [Xeloda, reference compound]: in data set [3] (250 mg/kg/inj Q1D × 9 PO), the “% Inhibition (T/C) (d 17)” value came out at 78%, the “% Regressions” value worked out at 0% and the “% Weight Loss (d 17)” value is reported as −0.5%. In data set [3] (500 mg/kg/inj Q1D × 9 PO), the “% Inhibition (T/C) (d 17)” value came out at 86.1%, the “% Regressions” value was 0% and the “% Weight Loss (d 17)” value was −5.6%. The same molecule showed a TGI in data set [3] (alone 250 mg/kg orally once daily for 9 days) of 78%. This molecule registered a TGI in data set [3] (alone 500 mg/kg orally once daily for 9 days) of 86%. Further, in data set [3] (both dose groups (250 and 500 mg/kg)), the animals showing regressions entry is on record as “zero”.
For “G250: MN antibody G250, a humanized IgG1 antibody, (Wilex), used as a reference [reference compound]”, in data set [4], the “co-immunoprecipitated proteins (specificity)” value was “selectively bound and co-immunoprecipitated with a single band of the same size as MN”. In addition, in data set [5], the Kd is 5.3 nM.
